According to ChEMBL document CHEMBL1127878, “Substituted lactam biphenyltetrazoles as angiotensin II mediated antihypertensives” (Bioorg Med Chem Lett, 1994):

Columns and labels:
Rattus norvegicus [1] = experiment: Tested for percent of maximal blood pressure drop in high renin rat after peroral administration of 30 mg/kg of dose; type: functional; settings: route oral
[2] = target: T1, Type-1 angiotensin II receptor (Oryctolagus cuniculus, UniProt P34976); experiment: In vitro binding affinity against Angiotensin II receptor in rabbit aorta rings; type: tissue-based; settings: read-out: pA2 (converted)
T1 sequence (P34976 whole entry): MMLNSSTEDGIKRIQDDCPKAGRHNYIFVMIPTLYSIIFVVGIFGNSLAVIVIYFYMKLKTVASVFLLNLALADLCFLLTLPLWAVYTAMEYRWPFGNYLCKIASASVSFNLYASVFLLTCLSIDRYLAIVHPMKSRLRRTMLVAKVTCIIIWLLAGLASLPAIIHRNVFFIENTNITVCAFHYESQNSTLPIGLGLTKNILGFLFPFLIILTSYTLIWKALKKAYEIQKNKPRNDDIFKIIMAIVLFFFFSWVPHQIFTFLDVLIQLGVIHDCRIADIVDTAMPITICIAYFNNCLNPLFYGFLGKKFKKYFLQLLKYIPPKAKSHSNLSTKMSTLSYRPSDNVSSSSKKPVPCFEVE

Rattus norvegicus [3] = experiment: Tested for total duration time(BP) after peroral administration of 30 mg/kg of dose in high renin rat; type: functional; settings: route oral
Rattus norvegicus [4] = experiment: Tested for total onset time(BP) after peroral administration of 30 mg/kg of dose in high renin rat; type: functional; settings: route oral
Rattus norvegicus [5] = experiment: Tested for percent of maximal blood pressure drop after peroral administration of 30 mg/kg in spontaneously hypertensive rat; type: functional; settings: route oral
Rattus norvegicus [6] = experiment: Tested for total onset time(BP) after peroral administration of 30 mg/kg of dose in spontaneously hypertensive rat; type: functional; settings: route oral
Rattus norvegicus [7] = experiment: Tested for total duration time(BP) after peroral administration of 30 mg/kg of dose in spontaneously hypertensive rat; type: functional; settings: route oral
Rattus norvegicus [8] = experiment: Dose (iv) required for graded reduction in mean arterial blood pressure in spontaneously hypertensive rat (also, 10 mg/kg); type: functional

Kb [2] [nM]	Structure (SMILES)	Max drop (Rattus norvegicus [1]) [%]	Duration (Rattus norvegicus [3]) [h]	Onset (Rattus norvegicus [4]) [h]	Max drop (Rattus norvegicus [1]; 30 mg/kg) [%]	Max drop (Rattus norvegicus [5]; 30 mg/kg) [%]	Onset (Rattus norvegicus [6]; 30 mg/kg) [h]	Duration (Rattus norvegicus [7]; 30 mg/kg) [h]	Max drop (Rattus norvegicus [5]) [%]	Onset (Rattus norvegicus [6]) [h]	Duration (Rattus norvegicus [7]) [h]	Duration (Rattus norvegicus [3]; 30 mg/kg) [h]	Onset (Rattus norvegicus [4]; 30 mg/kg) [h]	Dose (Rattus norvegicus [8]) [mg/kg]
1	CCOC(=O)/C=C1\C2C3CCC(C3)C2C(=O)N1Cc1ccc(-c2ccccc2-c2nn[nH]n2)cc1 (configuration not stated)	26	17	1	–	–	–	–	–	–	–	–	–	–
7.94	CCOC(=O)/C=C1\CC(CC)(CC)CC(=O)N1Cc1ccc(-c2ccccc2-c2nn[nH]n2)cc1 (stereo in doubt; 16)	–	–	–	100	100	0.25	24	–	–	–	–	–	–
39.8	CCOC(=O)/C=C1\CC(C)(C)CC(=O)N1Cc1ccc(-c2ccccc2-c2nn[nH]n2)cc1	17	5	2	–	–	–	–	–	–	–	–	–	–
31.6	CCCCC1(C)CC(=O)N(Cc2ccc(-c3ccccc3-c3nn[nH]n3)cc2)/C(=C/C(=O)OCC)C1 (configuration not stated)	98	–	–	–	–	–	–	98	0.5	24	–	–	–
3.98	CCOC(=O)/C=C1\CC(CC)(CC)CC(=O)N1Cc1ccc(-c2ccccc2-c2nn[nH]n2)cc1 (stereo in doubt; 11)	–	–	–	35	35	0.75	15	–	–	–	–	–	–
3.16	CCOC(=O)/C=C1\CC2(CCCC2)C(=O)N1Cc1ccc(-c2ccccc2-c2nn[nH]n2)cc1	20	3	2	–	–	–	–	–	–	–	–	–	–
5.01	CCOC(=O)/C=C1\CC2(CCCCC2)CC(=O)N1Cc1ccc(-c2ccccc2-c2nn[nH]n2)cc1	100	–	–	–	–	–	–	100	0.25	8	–	–	–
10	CCOC(=O)/C=C1\C2C3C=CC(CC3)C2C(=O)N1Cc1ccc(-c2ccccc2-c2nn[nH]n2)cc1 (stereo in doubt; 7)	–	–	–	43	–	–	–	86	1	13	10	0.25	–
12.6	CCOC(=O)/C=C1\CC2(CCCCC2)C(=O)N1Cc1ccc(-c2ccccc2-c2nn[nH]n2)cc1	26	17	1	–	–	–	–	–	–	–	–	–	–
–	CCCCc1nc(Cl)c(CO)n1Cc1ccc(-c2ccccc2-c2nnn[nH]2)cc1 [LOSARTAN]	100	24	2	–	–	–	–	100	2	24	–	–	–
15.8	CCOC(=O)/C=C1\CC(C)(C(C)C)CC(=O)N1Cc1ccc(-c2ccccc2-c2nn[nH]n2)cc1 (configuration not stated)	70	–	–	–	–	–	–	70	1.25	5	–	–	–
100	CCCCC1(CC)CC(=O)N(Cc2ccc(-c3ccccc3-c3nn[nH]n3)cc2)/C(=C/C(=O)OCC)C1 (configuration not stated)	55	–	–	–	–	–	–	55	0.25	8	–	–	–
1	CCOC(=O)/C=C1\CC(C)(CC)CC(=O)N1Cc1ccc(-c2ccccc2-c2nn[nH]n2)cc1 (stereo in doubt; 9)	–	<24	0.25	100	100	0.25	24	–	–	–	–	–	3
20	CCOC(=O)/C=C1\C2C3C=CC(CCC3)C2C(=O)N1Cc1ccc(-c2ccccc2-c2nn[nH]n2)cc1 (configuration not stated)	96	–	–	–	–	–	–	96	0.25	24	–	–	–
2.51	CCOC(=O)/C=C1\CC(C)(CC)CC(=O)N1Cc1ccc(-c2ccccc2-c2nn[nH]n2)cc1 (stereo in doubt; 13)	–	–	–	58	58	0.5	16	–	–	–	–	–	–
3.98	CCOC(=O)/C=C1\CC2(CCCCCC2)C(=O)N1Cc1ccc(-c2ccccc2-c2nn[nH]n2)cc1	31	23	0.75	–	–	–	–	80	1.5	16	–	–	–
6.31	CCOC(=O)/C=C1\C2C3C=CC(CC3)C2C(=O)N1Cc1ccc(-c2ccccc2-c2nn[nH]n2)cc1 (stereo in doubt; 5)	–	–	–	29	–	–	–	–	–	–	17	1.75	–
12.6	CCCC1(CC)CC(=O)N(Cc2ccc(-c3ccccc3-c3nn[nH]n3)cc2)/C(=C/C(=O)OCC)C1 (configuration not stated)	18	–	–	–	–	–	–	18	3	6	–	–	–
12.6	CCOC(=O)/C=C1\CC2(CCCC2)CC(=O)N1Cc1ccc(-c2ccccc2-c2nn[nH]n2)cc1	46	21	2.5	–	–	–	–	–	–	–	–	–	–
